What all share (type): in vivo
Assay [1] concerns Housefly [Musca domestica]. Put plainly: Housefly insecticidal test. The note with it: μg per 25 female flies; mortality after 48 hours. The procedure, abridged:
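Dry-film exposure of 25 female houseflies per cage, 48 h; LC50 as μg per 25 flies.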

Assay [2] has as its system Aster Leafhopper [Macrosteles fascifrens (Stal)]. Briefly: Aster leafhopper insecticidal test. The note with it: adults/nymphs, percent in solution; 48 hours. In outline: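 LC50 values, given as percent of test compound in the dip solution, were derived from dosage-mortality curves over concentrations from 0.05% downward. Mortality was counted 48 hours after ten leafhopper adults/nymphs were enclosed on treated seedlings. The seedlings were oats, about 10 cm tall, briefly dipped in 50-50 acetone-water.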

In assay [3] the test system is Maize weevil [Sitophilus Zeamais (Motschulsky)]. Put plainly: Maize weevil insecticidal test. As to conditions: adult weevils, percent in solution; 48 hours. In outline:
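LC50, in percent of compound in solution, was derived from dosage-mortality curves after 48 h at about 25 °C. Ten adult weevils per container fed on four corn seeds briefly immersed in acetone:water (50:50) solutions of up to 0.01% and dried.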

The test system of assay [4] is Cabbage Looper [Trichoplusia ni (Hubner)]. Put plainly: Cabbage looper insecticidal test. As to conditions: second-instar larvae, percent in solution; 3-5 days. The procedure, abridged: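 Leaf dip, squash cotyledons, 50-50 acetone-water, top dose 0.1% and lower. 5 second-instar larvae/dish, moist filter paper, high-humidity chamber. Mortality at 3-5 d; LC50 (% in solution) from dosage-mortality curves.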

Assay [5] concerns Tobacco Budworm [Heliothis virescens (Fabricius)] eggs. Briefly: Tobacco budworm egg test. The note with it: 2-day old eggs, percent in solution. The procedure, abridged: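 LC50 values (percent test compound in the dip solution) were calculated from dosage-mortality curves. Egg patches, 2 days old, were dipped in acetone solutions at concentrations from 0.1% downward and held at 78° F on rearing medium until control larvae hatched and fed.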

Molecules are shown by their SMILES. Bounds are passed on as bounds.

The values that follow come from patent US5070210A, “Novel ketenimines as intermediates for insecticides” (ICI Americas Inc., priority 1990, dated 1991).

For `Cc1cccc(N=C(OCc2cccc(Oc3ccccc3)c2)C(C)C)c1` [Compound 155], in assay [1], the “LC50, HF” value amounted to 9 µg. In assay [2], the “LC50, LH” value was over 0.05%. Also, in assay [3], the “LC50, MW” value is over 0.01%. Besides, the “LC50, CL” value in assay [4] stood at 0.004%. In addition, the “LC50, TBW, E (TBW-E)” value in assay [5] was found to be 0.06%.
For `COc1cccc(N=C(OCc2cccc(Oc3ccccc3)c2)C(C)C)c1` [Compound 143] the same measures were 10 µg, 0.006%, over 0.01%, 0.002% and under 0.1%.
In the case of `CC(C)C(=Nc1ccccc1)OCc1cccc(Oc2ccccc2)c1` [Compound 43], the “LC50, HF” value in assay [1] came to 7 µg. For the same molecule, the “LC50, LH” value in assay [2] is reported as over 0.05%. In addition, the “LC50, MW” value in assay [3] is over 0.01%. Further, the “LC50, CL” value in assay [4] is 0.018%. For the same molecule, the “LC50, TBW, E (TBW-E)” value in assay [5] amounted to 0.05%.
With `Fc1ccc(N=C(OCc2cccc(Oc3ccccc3)c2)C(F)F)cc1` [Compound 50], the “LC50, HF” value in assay [1] is 43 µg. Moreover, in assay [2], the “LC50, LH” value is listed as over 0.05%. Moreover, the “LC50, MW” value in assay [3] is given as over 0.01%. For the same molecule, the “LC50, CL” value in assay [4] is 0.02%. Moreover, the “LC50, TBW, E (TBW-E)” value in assay [5] was over 0.05%.
Regarding `Cc1ccc(N=C(OCc2ccc(F)c(Oc3ccc(F)cc3)c2)C(C)C)cc1Cl` [Compound 357], the “LC50, HF” value in assay [1] was under 100 µg. Besides, in assay [2], the “LC50, LH” value is on record as under 0.05%. Moreover, in assay [3], the “LC50, MW” value turned out to be 0.01%. Moreover, the “LC50, CL” value in assay [4] is over 0.1%. Besides, the “LC50, TBW, E (TBW-E)” value in assay [5] is listed as over 0.1%.
As to `Cc1ccc(N=C(OCc2ccc(F)c(Oc3ccccc3)c2)C(C)C)cc1Cl` [Compound 356], in assay [1], the “LC50, HF” value is under 100 µg. The “LC50, LH” value in assay [2] is reported as under 0.05%. For the same molecule, the “LC50, MW” value in assay [3] is reported as over 0.01%. The “LC50, CL” value in assay [4] is reported as over 0.1%. The “LC50, TBW, E (TBW-E)” value in assay [5] turned out to be 0.025%.
Regarding `CCC(=Nc1ccc(Cl)cc1)OCc1cccc(Oc2ccccc2)c1` [Compound 11], the “LC50, HF” value in assay [1] was determined as 6 µg. The “LC50, LH” value in assay [2] is over 0.05%. Further, in assay [3], the “LC50, MW” value is reported as over 0.01%. Also, the “LC50, CL” value in assay [4] was determined as 0.025%. Further, the “LC50, TBW, E (TBW-E)” value in assay [5] was over 0.1%.
For the molecule `CSc1ccc(N=C(OCc2cccc(Oc3ccccc3)c2)C(C)C)cc1` [Compound 142], the “LC50, HF” value in assay [1] was found to be 15 µg. For the same molecule, the “LC50, LH” value in assay [2] is given as over 0.05%. For the same molecule, in assay [3], the “LC50, MW” value is reported as over 0.01%. The “LC50, CL” value in assay [4] was determined as 0.005%. The “LC50, TBW, E (TBW-E)” value in assay [5] was determined as 0.1%.
For the molecule `CC(C)C(=Nc1ccc(C(C)(C)C)cc1)OCc1cccc(Oc2ccccc2)c1` [Compound 153], in assay [1], the “LC50, HF” value is over 100 µg. In assay [2], the “LC50, LH” value is 0.0005%. The “LC50, MW” value in assay [3] is on record as over 0.01%. For the same molecule, in assay [4], the “LC50, CL” value was found to be 0.004%. Besides, the “LC50, TBW, E (TBW-E)” value in assay [5] is on record as 0.1%.
With `CCS(=O)(=O)c1ccc(N=C(OCc2cccc(Oc3ccccc3)c2)C(C)C)cc1Cl` [Compound 112], the “LC50, HF” value in assay [1] is over 100 µg. The “LC50, LH” value in assay [2] is listed as over 0.05%. Further, in assay [3], the “LC50, MW” value is over 0.01%. For the same molecule, the “LC50, CL” value in assay [4] came out at 0.025%. The “LC50, TBW, E (TBW-E)” value in assay [5] is listed as over 0.1%.
For `CSc1cccc(N=C(OCc2ccc(F)c(Oc3ccccc3)c2)C(C)C)c1` [Compound 362] the same measures were under 100 µg, over 0.05%, over 0.01%, over 0.1% and over 0.1%.
For `COc1ccc(N=C(OCc2ccc(F)c(Oc3ccc(F)cc3)c2)C(C)C)cc1OC` [Compound 363], the “LC50, HF” value in assay [1] is under 100 µg. In addition, the “LC50, LH” value in assay [2] is reported as over 0.05%. In addition, the “LC50, MW” value in assay [3] is reported as over 0.01%. The “LC50, CL” value in assay [4] was over 0.1%. For the same molecule, in assay [5], the “LC50, TBW, E (TBW-E)” value was over 0.1%.
